ChEMBL document CHEMBL1130716, “The solid phase synthesis of a series of tri-substituted hydantoin ligands for the somatostatin SST5 receptor” (Bioorg Med Chem Lett, 1998)
The source made the active and inactive calls. The rule behind the calls is not given here.

Assays:
Format in all cases: cell-based
[1] = molecular target: T1, Somatostatin receptor type 5 (Homo sapiens, UniProt P35346); experiment: Compound was tested for inhibition of specific [125I]Tyr11-SRIF binding to human recombinant SST5 (somatostatin) receptor expressed in CHO-K1 cells
T1 sequence (P35346 whole entry): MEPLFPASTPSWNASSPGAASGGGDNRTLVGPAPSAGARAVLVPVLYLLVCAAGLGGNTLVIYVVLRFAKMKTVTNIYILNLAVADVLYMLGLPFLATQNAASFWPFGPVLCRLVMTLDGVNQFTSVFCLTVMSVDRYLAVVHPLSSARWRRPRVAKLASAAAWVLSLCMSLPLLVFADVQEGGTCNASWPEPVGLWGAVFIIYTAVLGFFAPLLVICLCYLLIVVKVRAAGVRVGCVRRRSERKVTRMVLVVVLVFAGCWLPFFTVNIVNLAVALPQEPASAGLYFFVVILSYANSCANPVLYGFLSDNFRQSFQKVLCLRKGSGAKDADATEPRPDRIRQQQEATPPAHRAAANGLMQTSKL

[2] = molecular target: Somatostatin receptor type 2 (Homo sapiens) (UniProt P30874); experiment: Tested for inhibitory activity at human recombinant sst 2 receptors expressed in CHO-K1 cells; No inhibition showed more than 50% inhibition
Somatostatin receptor type 2 (Homo sapiens), sequence (P30874 whole entry): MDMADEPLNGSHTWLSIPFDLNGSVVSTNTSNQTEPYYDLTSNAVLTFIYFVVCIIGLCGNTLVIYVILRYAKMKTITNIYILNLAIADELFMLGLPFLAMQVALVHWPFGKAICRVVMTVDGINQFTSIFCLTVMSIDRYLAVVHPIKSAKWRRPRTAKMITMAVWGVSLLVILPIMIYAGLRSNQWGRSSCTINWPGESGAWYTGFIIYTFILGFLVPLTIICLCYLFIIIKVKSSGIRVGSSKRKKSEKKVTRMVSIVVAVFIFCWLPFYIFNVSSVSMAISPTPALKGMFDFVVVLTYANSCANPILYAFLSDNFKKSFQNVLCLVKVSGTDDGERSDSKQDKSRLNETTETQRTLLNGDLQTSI

[3] = molecular target: T1, Somatostatin receptor type 5; experiment: Compound was tested for inhibition of specific [125I]-Tyr11-SRIF binding to human recombinant SST5 (somatostatin) receptor expressed in CHO-K1 cells at 10e-6 M concentration

IC50 [1] [nM] | Activity [2] | inhibition [3] [%] | SMILES
398 | inactive |  | O=C1[C@H](Cc2cccc3ccccc23)N(CCC#Cc2ccccc2)C(=O)N1CCN1CCCC1
1410 | inactive |  | NCCCC[C@@H](NC(=O)CC1SC(c2ccccc2)N([C@@H](Cc2ccc(-c3ccccc3)cc2)C(N)=O)C1=O)C(N)=O (some centres undefined)
316 | inactive |  | O=C1[C@H](Cc2ccc(OCc3ccccc3)cc2)N(CCCCc2ccccc2)C(=O)N1CCN1CCCC1
 | inactive | 49 | O=C1[C@H](Cc2cccc3ccccc23)N(CCCCc2ccccc2)C(=O)N1CCN1CCCC1
501 | inactive |  | COc1ccc(CCCCN2C(=O)N(CCN3CCCC3)C(=O)[C@@H]2Cc2ccc(OCc3ccccc3)cc2)cc1
 | inactive | 60 | COc1ccc(CCCCN2C(=O)N(CCN3CCCC3)C(=O)[C@@H]2Cc2cccc3ccccc23)cc1
316 | inactive |  | O=C1[C@H](Cc2ccc(OCc3ccccc3)cc2)N(CCC#Cc2ccccc2)C(=O)N1CCN1CCCC1
